Legend:
NCI-H1975 cells = test: Label-free determination of cell proliferation (CELIGO); assay type: cell-based
HCC4006 cells = test: as above; settings: 21 days (FIG. 10)
Description: 2000 HCC4006 (ATCC; CRL2871) were seeded into 96 well plates (Greiner BioOne 655090) one day prior to drug treatment in RPMI medium containing 10% FCS and 2 mM L-Glutamine. The next day wells were imaged label-free using brightfield imaging on a CELIGO Image Cytometer to determine the initial cell number. Subsequently cells were treated with either DMSO, with single drugs (osimertinib and each of the CBP/p300 bromodomain inhibitors) or drug combinations of 100 nM osimertinib and one CBP/p300 bromodomain inhibitor with drug concentrations given below. Plates were regularly imaged over weeks using brightfield mode (CELIGO Imaging Cytometer) to track cell proliferation in each well over time. Growth medium and treatments were replenished twice weekly. […] Cell numbers were determined using CELIGO software's built-in “direct cell counting” analysis tool in the brightfield mode.

PBRM1(5) = molecular target: T1, PBRM1(5) (Homo sapiens, UniProt Q86U86); test: BROMOscan BromoKdMAX; assay type: binding
T1 construct: T7 phage strains displaying bromodomains were grown in parallel; purchased DiscoverX (BROMOscan / BromoKdMAX service); host or cells: T7 phage in E. coli host derived from BL21
Description: (§1) A BromoKdMAX was performed at DiscoverX.
(§2) The assay principle is the following: BROMOscan™ is a novel industry leading platform for identifying small molecule bromodomain inhibitors. Based on proven KINOMEscan™ technology, BRO-MOscan™ employs a proprietary ligand binding site-directed competition assay to quantitatively measure interactions between test compounds and bromodomains. This robust and reliable assay panel is suitable for high throughput screening and delivers quantitative ligand binding data to facilitate the identification and optimization of potent and selective small molecule bromodomain inhibitors.
(§3) The assay was conducted as follows: For the Bromodomain assays, T7 phage strains displaying bromodomains were grown in parallel in 24-well blocks in an E. coli host derived from the BL21 strain. E. coli were grown to log-phase and infected with T7 phage from a frozen stock (multiplicity of infection=0.4) and incubated with shaking at 32° C. until lysis (90-150 minutes). The lysates were centrifuged (5,000×g) and filtered (0.2 μm) to remove cell debris. […] The liganded beads were blocked with excess biotin and washed with blocking buffer (SeaBlock (Pierce), 1% BSA, 0.05% Tween 20, 1 mM DTT) to remove unbound ligand and to reduce non-specific phage binding. […] Test compounds were prepared as 1000× stocks in 100% DMSO. Kds were determined using an 11-point 3-fold compound dilution series with one DMSO control point. […] The compounds were then diluted directly into the assays such that the final concentration of DMSO was 0.09%. All reactions performed in polypropylene 384-well plates. Each was a final volume of 0.02 ml. […] The bromodomain concentration in the eluates was measured by qPCR.

BAZ2B = molecular target: T2, BAZ2B (Homo sapiens, UniProt Q9UIF8); test: BROMOscan BromoKdMAX; assay type: binding
T2 construct: T7 phage strains displaying bromodomains were grown in parallel; purchased DiscoverX; host or cells: T7 phage in E. coli host derived from BL21
T2 sequence (Q9UIF8 2060-2164 limits assumed): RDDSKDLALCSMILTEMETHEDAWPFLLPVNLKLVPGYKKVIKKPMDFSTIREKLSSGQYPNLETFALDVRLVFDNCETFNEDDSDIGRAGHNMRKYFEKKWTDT
Description: as §1, §2, §3

SMARCA2 = molecular target: T3, SMARCA2 (Homo sapiens, UniProt P51531); test: BROMOscan BromoKdMAX; assay type: binding
T3 construct: T7 phage strains displaying bromodomains were grown in parallel; purchased DiscoverX (BROMOscan / BromoKdMAX service); host or cells: T7 phage in E. coli host derived from BL21
T3 sequence (P51531 1378-1506 limits assumed): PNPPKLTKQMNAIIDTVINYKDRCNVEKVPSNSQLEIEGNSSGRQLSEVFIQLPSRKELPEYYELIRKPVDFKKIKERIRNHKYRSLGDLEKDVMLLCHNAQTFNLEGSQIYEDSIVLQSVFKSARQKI
Description: as §1, §2, §3

BRD1 = molecular target: T4, BRD1 (Homo sapiens, UniProt O95696); test: BROMOscan BromoKdMAX; assay type: binding
T4 construct: T7 phage strains displaying bromodomains were grown in parallel; purchased DiscoverX; host or cells: T7 phage in E. coli host derived from BL21
T4 sequence (O95696 562-666 limits assumed): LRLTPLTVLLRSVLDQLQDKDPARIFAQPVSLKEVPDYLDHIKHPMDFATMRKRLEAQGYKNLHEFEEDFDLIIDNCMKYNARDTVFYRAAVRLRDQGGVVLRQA
Description: as §1, §2, §3

PBRM1(2) = molecular target: T5, PBRM1(2) (Homo sapiens, UniProt Q86U86); test: BROMOscan BromoKdMAX; assay type: binding
T5 construct: T7 phage strains displaying bromodomains were grown in parallel; purchased DiscoverX (BROMOscan / BromoKdMAX service); host or cells: T7 phage in E. coli host derived from BL21
T5 sequence (Q86U86 177-287 limits assumed): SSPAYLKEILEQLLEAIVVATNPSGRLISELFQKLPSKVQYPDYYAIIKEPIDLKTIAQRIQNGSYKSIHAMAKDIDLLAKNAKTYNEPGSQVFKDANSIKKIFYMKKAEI
Description: as §1, §2, §3

BAZ2A = molecular target: T6, BAZ2A (Homo sapiens, UniProt Q9UIF9); test: BROMOscan BromoKdMAX; assay type: binding
T6 construct: T7 phage strains displaying bromodomains were grown in parallel; purchased DiscoverX; host or cells: T7 phage in E. coli host derived from BL21
T6 sequence (Q9UIF9 1793-1897 limits assumed): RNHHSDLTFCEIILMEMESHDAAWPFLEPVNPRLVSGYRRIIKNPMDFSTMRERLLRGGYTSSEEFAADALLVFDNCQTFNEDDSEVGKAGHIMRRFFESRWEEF
Description: as §1, §2, §3

SMARCA4 = molecular target: T7, SMARCA4 (Homo sapiens, UniProt P51532); test: BROMOscan BromoKdMAX; assay type: binding
T7 construct: T7 phage strains displaying bromodomains were grown in parallel; purchased DiscoverX (BROMOscan / BromoKdMAX service); host or cells: T7 phage in E. coli host derived from BL21
T7 sequence (P51532 1453-1564 limits assumed): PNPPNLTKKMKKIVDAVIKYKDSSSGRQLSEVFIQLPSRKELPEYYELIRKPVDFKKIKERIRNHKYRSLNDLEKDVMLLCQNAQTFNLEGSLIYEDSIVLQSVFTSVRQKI
Description: as §1, §2, §3

ATAD2A = molecular target: T8, ATAD2A (Homo sapiens, UniProt Q6PL18); test: BROMOscan BromoKdMAX; assay type: binding
T8 construct: T7 phage strains displaying bromodomains were grown in parallel; purchased DiscoverX; host or cells: T7 phage in E. coli host derived from BL21
T8 sequence (Q6PL18 980-1092 limits assumed): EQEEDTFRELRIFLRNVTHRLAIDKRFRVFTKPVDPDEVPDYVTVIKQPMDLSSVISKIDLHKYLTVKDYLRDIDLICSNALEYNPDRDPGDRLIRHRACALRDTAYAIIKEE
Description: as §1, §2, §3

ATAD2B = molecular target: T9, ATAD2B (Homo sapiens, UniProt Q9ULI0); test: BROMOscan BromoKdMAX; assay type: binding
T9 construct: T7 phage strains displaying bromodomains were grown in parallel; purchased DiscoverX; host or cells: T7 phage in E. coli host derived from BL21
T9 sequence (Q9ULI0 951-1066 limits assumed): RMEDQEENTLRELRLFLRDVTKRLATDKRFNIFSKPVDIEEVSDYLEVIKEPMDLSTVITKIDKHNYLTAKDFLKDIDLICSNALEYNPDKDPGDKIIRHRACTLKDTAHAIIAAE
Description: as §1, §2, §3

BRPF3 = molecular target: T10, BRPF3 (Homo sapiens, UniProt Q9ULD4); test: BROMOscan BromoKdMAX; assay type: binding
T10 construct: T7 phage strains displaying bromodomains were grown in parallel; purchased DiscoverX; host or cells: T7 phage in E. coli host derived from BL21
T10 sequence (Q9ULD4 589-693 limits assumed): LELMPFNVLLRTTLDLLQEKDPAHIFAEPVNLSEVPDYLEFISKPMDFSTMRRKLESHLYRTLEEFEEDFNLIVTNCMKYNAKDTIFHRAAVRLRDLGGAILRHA
Description: as §1, §2, §3

GCN5L2 = molecular target: T11, GCN5L2 (Homo sapiens, UniProt Q92830); test: BROMOscan BromoKdMAX; assay type: binding
T11 construct: T7 phage strains displaying bromodomains were grown in parallel; purchased DiscoverX (BROMOscan / BromoKdMAX service); host or cells: T7 phage in E. coli host derived from BL21
T11 sequence (Q92830 728-832 limits assumed): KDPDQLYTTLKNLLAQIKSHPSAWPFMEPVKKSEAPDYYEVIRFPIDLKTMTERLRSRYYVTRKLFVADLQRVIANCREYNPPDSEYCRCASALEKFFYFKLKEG
Description: as §1, §2, §3

FALZ = molecular target: T12, FALZ (Homo sapiens, UniProt Q12830); test: BROMOscan BromoKdMAX; assay type: binding
T12 construct: T7 phage strains displaying bromodomains were grown in parallel; purchased DiscoverX (BROMOscan / BromoKdMAX service); host or cells: T7 phage in E. coli host derived from BL21
Description: as §1, §2, §3

TRIM33(PHD, Bromo.) = molecular target: T13, TRIM33(PHD, Bromo.) (Homo sapiens, UniProt Q9UPN9); test: BROMOscan BromoKdMAX; assay type: binding
T13 construct: TRIM33(PHD, Bromo.)
T13 sequence (Q9UPN9 whole entry): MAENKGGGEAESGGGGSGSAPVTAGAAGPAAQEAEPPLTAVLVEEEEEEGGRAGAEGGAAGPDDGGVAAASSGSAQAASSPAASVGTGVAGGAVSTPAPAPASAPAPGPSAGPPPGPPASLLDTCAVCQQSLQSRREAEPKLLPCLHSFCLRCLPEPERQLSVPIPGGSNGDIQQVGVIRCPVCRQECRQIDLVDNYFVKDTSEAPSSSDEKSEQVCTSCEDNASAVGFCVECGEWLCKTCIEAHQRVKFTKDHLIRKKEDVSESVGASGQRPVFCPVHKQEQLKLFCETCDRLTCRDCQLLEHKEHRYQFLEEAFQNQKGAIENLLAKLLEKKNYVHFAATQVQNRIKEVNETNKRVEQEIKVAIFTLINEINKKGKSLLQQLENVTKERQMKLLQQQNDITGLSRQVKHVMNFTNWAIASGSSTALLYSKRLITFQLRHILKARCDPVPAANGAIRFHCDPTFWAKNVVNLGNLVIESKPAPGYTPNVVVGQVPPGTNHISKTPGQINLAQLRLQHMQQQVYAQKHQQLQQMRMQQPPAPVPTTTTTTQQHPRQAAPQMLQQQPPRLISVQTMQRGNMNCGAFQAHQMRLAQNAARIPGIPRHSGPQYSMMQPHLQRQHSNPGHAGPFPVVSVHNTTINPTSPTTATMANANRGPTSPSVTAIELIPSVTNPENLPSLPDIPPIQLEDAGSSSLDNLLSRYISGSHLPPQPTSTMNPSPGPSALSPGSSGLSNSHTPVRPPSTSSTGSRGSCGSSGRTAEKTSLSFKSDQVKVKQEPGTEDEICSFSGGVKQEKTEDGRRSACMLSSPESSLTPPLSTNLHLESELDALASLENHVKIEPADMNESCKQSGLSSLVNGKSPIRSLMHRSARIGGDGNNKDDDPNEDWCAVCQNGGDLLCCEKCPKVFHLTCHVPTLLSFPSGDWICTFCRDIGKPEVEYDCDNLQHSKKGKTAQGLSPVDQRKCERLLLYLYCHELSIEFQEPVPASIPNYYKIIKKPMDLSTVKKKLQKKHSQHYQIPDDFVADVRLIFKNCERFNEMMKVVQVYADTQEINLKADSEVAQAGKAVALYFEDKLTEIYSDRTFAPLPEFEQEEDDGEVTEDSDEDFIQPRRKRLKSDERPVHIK
Description: as §1, §2, §3

HCC827 cells = test: Label-free determination of cell proliferation (CELIGO); assay type: cell-based; settings: 21 days (FIG. 9)
NCI-H1975 xenografts = test: NCI-H1975 xenograft tumor growth; assay type: in vivo, NMRI-Nude mice
Description: Tumor volume was measured using a manual caliper two to three times a week. The tumor volume was calculated using the formula: lager tumor diameter x square of the smaller tumor diameter divided by 2. Based on a linear fit of the mean tumor volumes the slopes of the curves were compared by regression analysis (two-tailed).
The response was determined by comparing tumor volume change at time t to its baseline: % tumor volume change=ΔVolt=100%×((Vt−Vinitial)/Vinitial). The Best Response was the minimum value of ΔVolt for t≥10 d. For each time t, the average of ΔVolt from t=0 to t was also calculated. The BestAvgResponse is defined as the minimum value of this average for t≥10 d. This metric captures a combination of speed, strength and durability of response into a single value. […] Mice that were sacrificed because of an adverse event before they had completed 14 d on trial were removed from the data set.
The response was determined by comparing tumor volume change at time t to its baseline: % tumor volume change=ΔVolt=100%×((Vt−Vinitial)/Vinitial). The Best Response was the minimum value of ΔVolt for t≥6 d. For each time t, the average of ΔVolt from t=0 to t was also calculated. The BestAvgResponse is defined as the minimum value of this average for t≥10 d. This metric captures a combination of speed, strength and durability of response into a single value. […] Mice that were sacrificed because of an adverse event before they had completed 14 d on trial were removed from the data set.

BRD8(1) = molecular target: T14, BRD8(1) (Homo sapiens, UniProt Q9H0E9); test: BROMOscan BromoKdMAX; assay type: binding
T14 construct: T7 phage strains displaying bromodomains were grown in parallel; purchased DiscoverX; host or cells: T7 phage in E. coli host derived from BL21
T14 sequence (Q9H0E9 706-811 limits assumed): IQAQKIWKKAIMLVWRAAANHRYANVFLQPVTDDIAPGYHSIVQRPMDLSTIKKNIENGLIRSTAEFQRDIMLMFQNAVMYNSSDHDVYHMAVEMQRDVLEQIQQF
Description: as §1
(§4) The assay principle is the following: BROMOscan™ is a novel industry leading platform for identifying small molecule bromodomain inhibitors. Based on proven KINOMEscan™ technology, BRO-MOscan™ employs a proprietary ligand binding site-directed competition assay to quantitatively measure interactions between test compounds and bromodomains.
as §3

BRD2(2) = molecular target: T15, BRD2(2) (Homo sapiens, UniProt P25440); test: BROMOscan BromoKdMAX; assay type: binding
T15 construct: T7 phage strains displaying bromodomains were grown in parallel; purchased DiscoverX; host or cells: T7 phage in E. coli host derived from BL21
T15 sequence (P25440 344-453 limits assumed): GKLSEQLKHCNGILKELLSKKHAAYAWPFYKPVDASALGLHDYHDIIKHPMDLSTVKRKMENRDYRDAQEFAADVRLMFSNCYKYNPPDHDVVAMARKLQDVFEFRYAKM
Description: as §1, §4, §3

T1 sequence (Q86U86 653-763 limits assumed): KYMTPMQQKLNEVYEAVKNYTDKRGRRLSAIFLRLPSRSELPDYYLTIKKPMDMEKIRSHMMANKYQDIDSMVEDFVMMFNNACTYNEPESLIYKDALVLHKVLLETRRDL

`CO[C@H]1CC[C@H](n2c([C@@H]3CCCC(=O)N3c3ccc(F)c(F)c3)nc3cc(-c4c(C)noc4C)ccc32)CC1` [CCS1477] was tested. Which Growth long-term (NCI-H1975 cells; NCI-H1975, 50 nM osimertinib with 2.0, 0.5 or 0.125 μM co-treatment (FIG. 5)) did it give?
Its Growth long-term is “delayed”.

And the “Effect on cell numbers on their own” value (NCI-H1975 cells; NCI-H1975, 2 μM single agent (FIG. 5))?
The value was “no/weak effect on cell numbers”.

What about the “Development of drug resistance / re-growth” value (HCC4006 cells; HCC4006, combined with 100 nM osimertinib) of the same molecule?
The value was “prevent the development of drug resistance”.

What about the “Effect on cell proliferation on their own” value (HCC4006 cells; HCC4006, single agent (1 μM Compound A, 0.2 μM Compound C, 0.2 μM CCS1477, 1 μM FT-6876, 0.2 μM GNE-781)) of the same molecule?
The value was “do not affect cell proliferation”.

And the Kd (PBRM1(5))?
Its Kd is 3.1 µM.

What about the Kd (BAZ2B) of the same molecule?
Its Kd is greater than 10 µM.

What about the Kd (SMARCA2) of the same molecule?
Its Kd is greater than 10 µM.

What about the Kd (BRD1) of the same molecule?
Its Kd is greater than 10 µM.

What about the Kd (PBRM1(2)) of the same molecule?
Its Kd is greater than 10 µM.

And the Kd (BAZ2A)?
The Kd was greater than 10 µM.

And the Kd (SMARCA4)?
The Kd was greater than 10 µM.

What about the Kd (ATAD2A) of the same molecule?
The Kd was greater than 10 µM.

And the Kd (ATAD2B)?
The Kd was greater than 10 µM.

What about the Kd (BRPF3) of the same molecule?
The Kd was greater than 10 µM.

And the Kd (GCN5L2)?
Its Kd is greater than 10 µM.

What about the Kd (FALZ) of the same molecule?
The Kd was 5.5 µM.

What about the Kd (TRIM33(PHD, Bromo.)) of the same molecule?
Its Kd is greater than 10 µM.

And the “Development of drug resistance / re-growth” value (HCC827 cells; HCC827, combined with 100 nM osimertinib)?
The value was “prevent the development of drug resistance”.

What about the “Effect on cell proliferation on their own” value (HCC827 cells; HCC827, single agent (1 μM Compound A, 0.2 μM Compound C, 0.2 μM CCS1477, 1 μM FT-6876, 0.2 μM GNE-781)) of the same molecule?
The value was “do not affect cell proliferation”.

What about the “Response rate to therapy (best average response)” value (NCI-H1975 xenografts; 2 mg/kg osimertinib in combination with 20 mg/kg CCS1477) of the same molecule?
The value was “increased response rate”.

And the “Tumor growth (slopes of mean tumor volume curves) versus osimertinib group” value (NCI-H1975 xenografts; 2 mg/kg osimertinib in combination with 20 mg/kg CCS1477, daily, orally)?
Its value is “significant difference”.

What about the “Response to therapy (best average response)” value (NCI-H1975 xenografts; 20 mg/kg CCS1477 alone) of the same molecule?
Its value is “absence of response”.

And the “Tumor growth (slopes of mean tumor volume curves) versus vehicle” value (NCI-H1975 xenografts; 20 mg/kg CCS1477 single agent, daily, orally)?
The value was “No significant difference”.

What about the Kd (BRD8(1)) of the same molecule?
Its Kd is greater than 10 µM.

And the Kd (BRD2(2))?
Its Kd is 2.1 µM.

Source: patent US20230255966A1, “A COMBINATION OF A CBP/P300 BROMODOMAIN INHIBITOR AND AN EGFR INHIBITOR FOR USE IN TREATING EGFR-MUTANT NSCLC” (TOLREMO THERAPEUTICS AG, priority 2020, published 2023)
